According to publication PMC10281575, “PfCRT mutations conferring piperaquine resistance in falciparum malaria shape the kinetics of quinoline drug binding and transport” (PLOS Pathogens, 2023):
“And” between values parts separate entries of the source, which are not always exact repeats. Equal entries are not always repeated. Where two headings read alike, the source gives them in different places.

Molecular target: T1, PfCRT^Dd2_F145I (Plasmodium falciparum, UniProt Q8IBZ9, A220S/F145I/I356T/K76T/M74I/N326S/N75E/Q271E/R371I)
T1 construct: expressed in transfected cells; host or cells: Xenopus laevis oocytes injected with in vitro transcribed RNA (pSP64T)
T1 sequence (Q8IBZ9 1-424 M74I/N75E/K76T/F145I/A220S/Q271E/N326S/I356T/R371I): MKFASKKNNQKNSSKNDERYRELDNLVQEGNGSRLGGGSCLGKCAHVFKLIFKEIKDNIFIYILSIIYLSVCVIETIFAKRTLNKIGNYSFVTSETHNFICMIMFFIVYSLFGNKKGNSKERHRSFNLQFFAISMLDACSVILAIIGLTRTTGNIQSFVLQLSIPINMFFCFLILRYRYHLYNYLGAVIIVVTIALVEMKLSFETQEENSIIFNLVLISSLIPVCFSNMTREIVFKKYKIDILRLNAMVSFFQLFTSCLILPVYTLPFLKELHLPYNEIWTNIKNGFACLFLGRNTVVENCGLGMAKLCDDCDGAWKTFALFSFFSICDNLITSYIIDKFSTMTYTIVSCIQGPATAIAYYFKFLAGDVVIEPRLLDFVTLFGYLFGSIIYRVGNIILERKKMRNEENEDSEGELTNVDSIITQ
Test: Competition kinetics of drug transport (radiolabeled substrate plus cold inhibitor), PfCRT^Dd2_F145I-expressing oocytes
Type: cell-based
Conditions: for PfCRTDd2_F145I-mediated CQ transport: 500 µM CQ; for Vmax, maximal velocity of drug transport: global fit; for β, partiality factor: factor on transport of the labeled drug by the other drug
Protocol: To further characterize the kinetic relationship between CQ and PPQ, we performed a series of competition reactions. To this end, water-injected oocytes and PfCRT-expressing oocytes were incubated in medium containing one of seven concentrations of radio-labeled CQ and one of six concentrations of cold PPQ for 60 min before the amount of radio-labeled CQ uptake was determined. The rate of PfCRT-mediated CQ uptake was calculated for each condition by subtracting the corresponding value obtained for water-injected oocytes from those of PfCRT-expressing oocytes. The results were analyzed as a function of the CQ concentration (Fig 4A) and 16 different models of substrate competition were globally fit to the data by the least-squares method, using Python. The models were ranked, according to their Akaike information criterion difference (ΔAICC) and their Akaike weight (Fig 4B), with the most plausible model being the one with the lowest AICC (ΔAICC = 0) and the highest Akaike weight.
A complementary set of experiments was undertaken to investigate the kinetic mechanism by which PfCRT^Dd2_F145I accepts CQ and PPQ (Fig 6). […] These included a global fit of the substrate competition data to the 16 kinetic models (Fig 6), analysis of the secondary plots (Vmax,app and Vmax,app/KM,app as a function of the inhibitor concentration) (Fig 7A), a fractional velocity plot analysis (Fig 7B) and a comparison of the experimental data with the modelled data using the noncompetitive inhibition equation (Fig 7C to 7F). […] The fractional velocity plot illustrated the partial character of the noncompetitive inhibition mechanism by yielding a partiality factor β^CQ = 0.31 ± 0.04, by which PPQ reduces the transport velocity of CQ (Fig 7B). […] A 3D model of the kinetics between PfCRT^Dd2_F145I, CQ and PPQ, and analyses of the residuals as a function of substrate and inhibitor concentrations confirmed that the model was also an appropriate explanation for the mutant transporter (Fig 7C to 7F).
Drug transport assays were performed as previously described. Briefly, measurements of radiolabeled drug uptake were made over 1 h, unless otherwise specified. […] Where specified, one or more unlabeled drugs were also present at the indicated concentrations. The direction of drug transport in the assays is from the extracellular medium (pH 6) into the oocyte cytosol (pH 7.2), which corresponds to the efflux of CQ or PPQ from the acidic digestive vacuole (pH 5.2) into the parasite cytosol (pH 7.2). The uptake assays were terminated by removing the oocytes from the reaction medium and washing them three times with 2 mL of ice-cold ND96 buffer. Each oocyte was transferred to a separate scintillation vial and lysed by the addition of 200 μL of a 5% SDS solution. The radioactivity in the sample was measured using a liquid scintillation analyser Tri-Carb 4910 TR (PerkinElmer). Water-injected oocytes were analyzed in parallel as a negative control. The buffer from each condition was measured in duplicate in parallel to each experiment to transform counts per minute into pmol of drug. Drug uptake attributable to PfCRT was determined by subtracting the background uptake from water-injected oocytes from that of PfCRT-expressing oocytes. In all cases, at least three independent experiments were performed on oocytes from different frogs, and for each condition in an experiment, measurements were made from 10 oocytes per treatment.
The following equations were adopted from Segel (1993), and the reader is referred to that text for the assumptions made in the author’s approach in the derivation of each equation [31]. The concentration of substrate is denoted as [S1] and the concentration of the inhibiting substrate is denoted as [S2]. KS1 and KS2 are the dissociation constants for the respective substrate-protein complexes.
Analyses of the kinetic data were performed using SigmaPlot version 13.0 and Python. […]

CCN(CC)CCCC(C)Nc1ccnc2cc(Cl)ccc12 (stereo not shown) [CQ, chloroquine]
PfCRTDd2_F145I-mediated CQ transport (200 µM PPQ): 12.08 pmol oocyte-1 h-1 and 15.16 pmol oocyte-1 h-1 and 13.13 pmol oocyte-1 h-1
PfCRTDd2_F145I-mediated CQ transport (350 µM PPQ): 10.85 pmol oocyte-1 h-1 and 12.45 pmol oocyte-1 h-1 and 11.74 pmol oocyte-1 h-1
most plausible inhibition model (16 models, ΔAICC, Akaike weight, secondary plots): partial noncompetitive inhibition
Vmax, maximal velocity of drug transport (Mixed (Partial) model, drug as radiolabeled substrate): 34 ± 2 pmol oocyte^-1 h^-1
Kd (Mixed (Partial) model, drug as cold inhibitor, read-out: KS, dissociation constant for the PfCRT-substrate complex): 200 ± 90 µM
Kd (Mixed (Partial) model, drug as radiolabeled substrate, read-out: KS, dissociation constant for the PfCRT-substrate complex): 350 ± 50 µM
β, partiality factor (Mixed (Partial) model): 0.41 ± 0.08
α, KS interaction factor (Mixed (Partial) model, label = radiolabeled substrate, other drug cold inhibitor): 1.0 ± 0.3
Vmax, maximal velocity of drug transport (Noncompetitive (Partial) model, drug as radiolabeled substrate, other drug as cold inhibitor): 34 pmol oocyte^-1 h^-1 and 34 ± 2 pmol oocyte^-1 h^-1
Kd (Noncompetitive (Partial) model, drug as cold inhibitor, read-out: KS, dissociation constant for the PfCRT-substrate complex): 225 µM and 230 µM
Kd (Noncompetitive (Partial) model, drug as radiolabeled substrate, read-out: KS, dissociation constant for the PfCRT-substrate complex): 357 µM and 360 µM
β, partiality factor (Noncompetitive (Partial) model): 0.40 and 0.40 ± 0.04
KMapp ([3H]CQ + PPQ) ([PPQ] 0 µM): 355.22 µM
Vmaxapp ([3H]CQ + PPQ) ([PPQ] 0 µM): 32.70 pmol oocyte-1 h-1
Vmaxapp/KMapp ([3H]CQ + PPQ) ([PPQ] 0 µM): 0.0962 h⁻¹
KMapp ([3H]CQ + PPQ) ([PPQ] 50 µM): 351.46 µM
Vmaxapp ([3H]CQ + PPQ) ([PPQ] 50 µM): 27.98 pmol oocyte-1 h-1
Vmaxapp/KMapp ([3H]CQ + PPQ) ([PPQ] 50 µM): 0.0844 h⁻¹
KMapp ([3H]CQ + PPQ) ([PPQ] 125 µM): 355.14 µM
Vmaxapp ([3H]CQ + PPQ) ([PPQ] 125 µM): 25.60 pmol oocyte-1 h-1
Vmaxapp/KMapp ([3H]CQ + PPQ) ([PPQ] 125 µM): 0.0728 h⁻¹
KMapp ([3H]CQ + PPQ) ([PPQ] 200 µM): 365.31 µM
Vmaxapp ([3H]CQ + PPQ) ([PPQ] 200 µM): 21.83 pmol oocyte-1 h-1
Vmaxapp/KMapp ([3H]CQ + PPQ) ([PPQ] 200 µM): 0.0619 h⁻¹
KMapp ([3H]CQ + PPQ) ([PPQ] 350 µM): 375.85 µM
Vmaxapp ([3H]CQ + PPQ) ([PPQ] 350 µM): 19.75 pmol oocyte-1 h-1
Vmaxapp/KMapp ([3H]CQ + PPQ) ([PPQ] 350 µM): 0.0554 h⁻¹
KMapp ([3H]CQ + PPQ) ([PPQ] 500 µM): 353.13 µM
Vmaxapp ([3H]CQ + PPQ) ([PPQ] 500 µM): 17.90 pmol oocyte-1 h-1
Vmaxapp/KMapp ([3H]CQ + PPQ) ([PPQ] 500 µM): 0.0540 h⁻¹
β^CQ, partiality factor (fractional velocity plot, factor by which PPQ reduces the transport velocity of CQ): 0.31 ± 0.04
Kd (secondary plot, half-maximal inhibitory concentration of Vmax,app versus inhibitor concentration, read-out: αKS, dissociation constant between the drug and the PfCRT complex with the other drug): 210 ± 120 µM
Kd (secondary plot, half-maximal inhibitory concentration of Vmax,app/KM,app versus inhibitor concentration, read-out: KS, dissociation constant between the drug and PfCRT): 250 ± 150 µM
α (αKS divided by KS) (secondary plots, label = prebound drug): 1.0 ± 0.3
